How the values were obtained:
[1] = test system: HCV replicon with a D168E mutation in a 1a-H77 background; experiment: transient replicon assay, D168E mutation in 1a-H77 background; type: cell-based, hepatitis C virus (genotype 1a-H77); details: Hepatitis C virus, read-out: EC50 in a transient replicon assay with a D168E mutation in a 1a-H77 background
Procedure, shortened: (§1)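 Transient transfection of mutant replicon RNA (1a-H77 with NS2–NS5B, or 1b-N with NS3–NS5B plus E1202G/S2204I) by electroporation into IFN-cured Huh7 cells, plated at 7.5×10^3 cells per well in DMEM with 5% FBS. Serial compound dilutions added 4 h post-transfection (0.5% DMSO final).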

[2] = test system: HCV replicon with a R155K mutation in a 1a-H77 background; experiment: transient replicon assay, R155K mutation in 1a-H77 background; type: cell-based, hepatitis C virus (genotype 1a-H77); details: Hepatitis C virus, read-out: EC50 in a transient replicon assay with a R155K mutation in a 1a-H77 background
Procedure, shortened: as §1

dog PK experiment = details: in vivo; for bioavailability: dog PK experiment, 3 mg/kg, read-out: F value (bioavailability); for AUC: dog, dosed at 3 mg/kg
Excerpt: Those of ordinary skill in the art are aware of the biological assays utililized to test the compounds of the invention. Regarding bioavailability data (F values), a more thorough explanation can be found in Rowland, M and Tozer, T Clinical Pharmacokinetics: Concepts and Applications Lippincott, Williams & Wilkins 3rd ed. 1995, (specifically covered on page 43).

[3] = test system: HCV replicon with a D168V mutation in a 1a-H77 background; experiment: transient replicon assay, D168V mutation in 1a-H77 background; type: cell-based, hepatitis C virus (genotype 1a-H77); details: Hepatitis C virus, read-out: EC50 in a transient replicon assay with a D168V mutation in a 1a-H77 background
Procedure, shortened: as §1

Cc1cc(C(=O)N[C@H]2CCCCC/C=C\[C@@H]3C[C@@]3(C(=O)NS(=O)(=O)C3CC3)NC(=O)[C@@H]3C[C@@H](Oc4nc5cc(F)ccc5nc4C(F)(F)F)CN3C2=O)no1 [Example 107, N-((2R,6S,13aS,14aR,16aS,Z)-14a-(cyclopropylsulfonylcarbamoyl)-2-(7-fluoro-3-(trifluoromethyl)quinoxalin-2-yloxy)-5,16-dioxo-1,2,3,5,6,7,8,9,10,11,13a,14,14a,15,16,16a-hexadecahydrocyclopropa[e]pyrrolo[1,2-a][1,4]diazacyclopentadecin-6-yl)-5-methylisoxazole-3-carboxamide]
EC50 [1]: < 3 nM
EC50 [2]: < 1 nM
bioavailability (dog PK experiment): 74%
AUC (dog PK experiment): 54000 ng·h/mL
EC50 [3]: < 25 nM

Cc1cc(C(=O)N[C@H]2CCCCC/C=C\[C@@H]3C[C@@]3(C(=O)NS(=O)(=O)C3CC3)NC(=O)[C@@H]3C[C@@H](Oc4nc5ccccc5nc4C(C)(F)F)CN3C2=O)no1 [Example 2, N-((2R,6S,13aS,14aR,16aS,Z)-14a-(cyclopropylsulfonylcarbamoyl)-2-(3-(1,1-difluoroethyl)quinoxalin-2-yloxy)-5,16-dioxo-1,2,3,5,6,7,8,9,10,11,13a,14,14a,15,16,16a-hexadecahydrocyclopropa[e]pyrrolo[1,2-a][1,4]diazacyclopentadecin-6-yl)-5-methylisoxazole-3-carboxamide]
EC50 [1]: < 3 nM
EC50 [2]: < 1 nM
bioavailability (dog PK experiment): > 100%
AUC (dog PK experiment): 4500 ng·h/mL
EC50 [3]: 25 to 50 nM

Cc1onc(C(=O)N[C@H]2CCCCC/C=C\[C@@H]3C[C@@]3(C(=O)NS(=O)(=O)C3CC3)NC(=O)[C@@H]3C[C@@H](Oc4nc5ccccc5nc4C(F)(F)F)CN3C2=O)c1C [Example 16, N-((2R,6S,13aS,14aR,16aS,Z)-14a-(cyclopropylsulfonylcarbamoyl)-5,16-dioxo-2-(3-(trifluoromethyl)quinoxalin-2-yloxy)-1,2,3,5,6,7,8,9,10,11,13a,14,14a,15,16,16-hexadecahydrocyclopropa[e]pyrrolo[1,2-a][1,4]diazacyclopentadecin-6-yl)-4,5-dimethylisoxazole-3-carboxamide]
EC50 [1]: < 3 nM
EC50 [2]: < 1 nM
bioavailability (dog PK experiment): 66%
AUC (dog PK experiment): 2100 ng·h/mL
EC50 [3]: < 25 nM

Cc1cc(C(=O)N[C@H]2CCCCC/C=C\[C@@H]3C[C@@]3(C(=O)NS(=O)(=O)C3CC3)NC(=O)[C@@H]3C[C@@H](Oc4nc5cc(F)ccc5nc4C(C)(F)F)CN3C2=O)no1 [Example 117, N-((2R,6S,13aS,14aR,16aS,Z)-14a-(cyclopropylsulfonylcarbamoyl)-2-(3-(1,1-difluoroethyl)-7-fluoroquinoxalin-2-yloxy)-5,16-dioxo-1,2,3,5,6,7,8,9,10,11,13a,14,14a,15,16,16a-hexadecahydrocyclopropa[e]pyrrolo[1,2-a][1,4]diazacyclopentadecin-6-yl)-5-methylisoxazole-3-carboxamide]
EC50 [1]: < 3 nM
EC50 [2]: < 1 nM
bioavailability (dog PK experiment): 63%
AUC (dog PK experiment): 63000 ng·h/mL
EC50 [3]: < 25 nM

Cc1cc(C(=O)N[C@H]2CCCCC/C=C\[C@@H]3C[C@@]3(C(=O)NS(=O)(=O)C3(C)CC3)NC(=O)[C@@H]3C[C@@H](Oc4nc5cc(F)ccc5nc4C(F)(F)F)CN3C2=O)no1 [Example 111, N-((2R,6S,13aS,14aR,16aS,Z)-2-(7-fluoro-3-(trifluoromethyl)quinoxalin-2-yloxy)-14a-(1-methylcyclopropylsulfonylcarbamoyl)-5,16-dioxo-1,2,3,5,6,7,8,9,10,11,13a,14,14a,15,16,16a-hexadecahydrocyclopropa[e]pyrrolo[1,2-a][1,4]diazacyclopentadecin-6-yl)-5-methylisoxazole-3-carboxamide]
EC50 [1]: < 3 nM
EC50 [2]: < 1 nM
bioavailability (dog PK experiment): 88%
AUC (dog PK experiment): 141000 ng·h/mL
EC50 [3]: < 25 nM

Cc1cc(C(=O)N[C@H]2CCCCC/C=C\[C@@H]3C[C@@]3(C(=O)NS(=O)(=O)C3(C)CC3)NC(=O)[C@@H]3C[C@@H](Oc4nc5cc(F)ccc5nc4C)CN3C2=O)no1 [Example 23, N-((2R,6S,13aS,14aR,16aS,Z)-2-(7-fluoro-3-methylquinoxalin-2-yloxy)-14a-(1-methylcyclopropylsulfonylcarbamoyl)-5,16-dioxo-1,2,3,5,6,7,8,9,10,11,13a,14,14a,15,16,16a-hexadecahydrocyclopropa[e]pyrrolo[1,2-a][1,4]diazacyclopentadecin-6-yl)-5-methylisoxazole-3-carboxamide]
EC50 [1]: 3 to 20 nM
EC50 [2]: 1 to 10 nM
bioavailability (dog PK experiment): 86%
AUC (dog PK experiment): 201000 ng·h/mL
EC50 [3]: < 25 nM

Cc1cc(C(=O)N[C@H]2CCCCC/C=C\[C@@H]3C[C@@]3(C(=O)NS(=O)(=O)C3CC3)NC(=O)[C@@H]3C[C@@H](Oc4nc5ccccc5nc4C(F)(F)F)CN3C2=O)no1 [Example 10, N-((2R,6S,13aS,14aR,16aS,Z)-14a-(cyclopropylsulfonylcarbamoyl)-5,16-dioxo-2-(3-(trifluoromethyl)quinoxalin-2-yloxy)-1,2,3,5,6,7,8,9,10,11,13a,14,14a,15,16,16a-hexadecahydrocyclopropa[e]pyrrolo[1,2-a][1,4]diazacyclopentadecin-6-yl)-5-methylisoxazole-3-carboxamide]
EC50 [1]: < 3 nM
EC50 [2]: < 1 nM
bioavailability (dog PK experiment): > 100%
AUC (dog PK experiment): 27000 ng·h/mL
EC50 [3]: 25 to 50 nM

Cc1cc(C(=O)N[C@H]2CCCCC/C=C\[C@@H]3C[C@@]3(C(=O)NS(=O)(=O)C3(C)CC3)NC(=O)[C@@H]3C[C@@H](Oc4nc5cc(F)ccc5nc4C(C)(F)F)CN3C2=O)no1 [Example 119, N-((2R,6S,13aS,14aR,16aS,Z)-2-(3-(1,1-difluoroethyl)-7-fluoroquinoxalin-2-yloxy)-14a-(1-methylcyclopropylsulfonylcarbamoyl)-5,16-dioxo-1,2,3,5,6,7,8,9,10,11,13a,14,14a,15,16,16a-hexadecahydrocyclopropa[e]pyrrolo[1,2-a][1,4]diazacyclopentadecin-6-yl)-5-methylisoxazole-3-carboxamide]
EC50 [1]: < 3 nM
EC50 [2]: < 1 nM
bioavailability (dog PK experiment): 64%
AUC (dog PK experiment): 30000 ng·h/mL
EC50 [3]: < 25 nM

Cc1cc(C(=O)N[C@H]2CCCCC/C=C\[C@@H]3C[C@@]3(C(=O)NS(=O)(=O)C3CC3)NC(=O)[C@@H]3C[C@@H](Oc4nc5c(F)cccc5nc4C)CN3C2=O)no1 [Example 56, N-((2R,6S,13aS,14aR,16aS,Z)-14a-(cyclopropylsulfonylcarbamoyl)-2-(8-fluoro-3-methylquinoxalin-2-yloxy)-5,16-dioxo-1,2,3,5,6,7,8,9,10,11,13a,14,14a,15,16,16a-hexadecahydrocyclopropa[e]pyrrolo[1,2-a][1,4]diazacyclopentadecin-6-yl)-5-methylisoxazole-3-carboxamide]
EC50 [1]: 20 to 50 nM
EC50 [2]: 1 to 10 nM
bioavailability (dog PK experiment): > 100%
AUC (dog PK experiment): 10800 ng·h/mL
EC50 [3]: 50 to 250 nM

Cc1cc(C(=O)N[C@H]2CCCCC/C=C\[C@@H]3C[C@@]3(C(=O)NS(=O)(=O)C3(C)CC3)NC(=O)[C@@H]3C[C@@H](Oc4nc5cc(F)cc(Br)c5nc4C)CN3C2=O)no1 [Example 101, N-((2R,6S,13aS,14aR,16aS,Z)-2-(5-bromo-7-fluoro-3-methylquinoxalin-2-yloxy)-14a-(1-methylcyclopropylsulfonylcarbamoyl)-5,16-dioxo-1,2,3,5,6,7,8,9,10,11,13a,14,14a,15,16,16a-hexadecahydrocyclopropa[e]pyrrolo[1,2-a][1,4]diazacyclopentadecin-6-yl)-5-methylisoxazole-3-carboxamide]
EC50 [1]: 3 to 20 nM
EC50 [2]: < 1 nM
bioavailability (dog PK experiment): > 100%
AUC (dog PK experiment): 84000 ng·h/mL
EC50 [3]: < 25 nM

Source: patent US9493506B2 (Enanta Pharmaceuticals, Inc., priority 2010, dated 2016)
